Test results reported in patent US9212196B2, “Hypophosphorous acid derivatives having antihyperalgic activity and biological applications thereof” (UNIVERSITE PARIS DESCARTES, priority 2011, dated 2015).

Assays:
Assay type in all cases: cell-based
mGlu6 = mGlu6 (Homo sapiens (Human), UniProt O15303); experiment: Agonist activity on mGlu6 in transfected HEK293 cells, intracellular calcium release (Fluo4-AM); settings: transfected cells, calcium release; read-out: mGlu6 EC50 μM (n)
From the text: (§1) The EC50's are compared to those of L-AP4 (L-2-amino-4-phosphonobutyric acid) used as a reference.
(§2) Metabotropic glutamate receptors were transiently transfected in HEK293 cells by electroporation as described elsewhere (Brabet I. et al., 1998) and plated in 96-well microplates. The high affinity glutamate transporter EAAC1 was co-transfected with the receptor in order to avoid any influence of glutamate released by the cells in the assay medium. In the experiments carried out by the inventors, Group-III mGluRs were co-transfected with a chimeric G-protein which couples the activation of the receptor to the phospholipase-C (PLC) pathway. Thus receptor activation induces production of inositol phosphate (IP) which in turn induces intracellular Ca^2+ release. Receptor activity was then determined by measurement of the IP production or Ca release as already described (Goudet C. et al., PNAS 2004). For intracellular calcium measurements, cells expressing mGluRs were loaded with Ca2+-sensitive fluorescent dye Fluo-4 AM (Invitrogen, Cergy-Pontoise, France) dissolved in Hanks' balanced salt solution (HBSS, Invitrogen, Cergy-Pontoise, France) containing 2.5 mM Probenicid (Sigma-Aldrich Chemie, Saint-Quentin Fallavier, France) for 1 h at 37° C., then washed and incubated with HBSS containing probenecid. A drug plate was prepared with the various concentrations of agonist to be tested and drug solution was added in each well after 20 s of recording. Fluorescence signals (excitation 485 nm, emission 525 nm) were measured by using the fluorescence microplate reader Flexstation III (Molecular Devices, Saint-Grégoire, France) at sampling intervals of 1.5 s for 60 s. All points are realized in triplicate.
(§3) The dose-response curves were fitted using the GraphPad Prism program and the following equation: y=[(ymax−ymin)/(1+(x/EC50)n)]+ymin where EC50 is the concentration of the compound necessary to obtain the half maximal effect and n is the Hill coefficient.

mGlu4 = mGlu4 (Homo sapiens (Human), UniProt Q14833); experiment: Agonist activity on mGlu4 in transfected HEK293 cells, intracellular calcium release (Fluo4-AM); settings: transfected cells, calcium release; read-out: mGlu4 EC50 μM (n)
From the text: as §1, §2, §3

mGlu7 [1] = target: mGlu7 (Homo sapiens (Human), UniProt Q14831); experiment: Agonist activity on mGlu7 in transfected HEK293 cells, intracellular calcium release (Fluo4-AM); settings: transfected cells, calcium release; read-out: mGlu7 EC50 μM (n)
From the text: as §1, §2, §3

mGlu7 [2] = experiment: as above; settings: ratio of mGlu7 EC50 to mGlu4 EC50
From the text: as §1, §2, §3

mGlu6, sequence (O15303 25-877): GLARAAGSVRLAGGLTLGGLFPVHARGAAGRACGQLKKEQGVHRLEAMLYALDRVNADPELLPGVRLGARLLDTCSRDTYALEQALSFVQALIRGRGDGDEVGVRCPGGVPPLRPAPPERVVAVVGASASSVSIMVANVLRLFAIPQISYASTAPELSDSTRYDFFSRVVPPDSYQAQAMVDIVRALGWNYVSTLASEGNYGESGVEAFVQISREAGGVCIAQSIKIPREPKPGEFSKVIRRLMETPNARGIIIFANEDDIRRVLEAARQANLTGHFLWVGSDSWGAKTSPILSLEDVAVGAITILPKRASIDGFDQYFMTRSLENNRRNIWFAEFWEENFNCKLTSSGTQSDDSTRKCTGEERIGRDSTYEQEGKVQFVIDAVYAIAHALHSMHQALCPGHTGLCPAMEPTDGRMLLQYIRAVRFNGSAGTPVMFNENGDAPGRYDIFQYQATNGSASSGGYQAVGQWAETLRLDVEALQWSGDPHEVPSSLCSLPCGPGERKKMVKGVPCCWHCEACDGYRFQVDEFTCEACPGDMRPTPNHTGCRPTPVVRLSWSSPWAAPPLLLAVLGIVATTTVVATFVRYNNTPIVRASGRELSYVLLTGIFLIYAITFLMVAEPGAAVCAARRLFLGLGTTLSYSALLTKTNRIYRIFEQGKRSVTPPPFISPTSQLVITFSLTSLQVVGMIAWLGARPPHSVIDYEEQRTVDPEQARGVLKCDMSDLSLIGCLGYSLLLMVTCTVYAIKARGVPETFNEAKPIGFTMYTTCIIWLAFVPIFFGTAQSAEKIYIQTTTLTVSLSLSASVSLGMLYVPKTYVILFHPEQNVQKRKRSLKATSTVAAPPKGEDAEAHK
mGlu7 (Homo sapiens (Human), UniProt Q14831), sequence (Q14831 35-915): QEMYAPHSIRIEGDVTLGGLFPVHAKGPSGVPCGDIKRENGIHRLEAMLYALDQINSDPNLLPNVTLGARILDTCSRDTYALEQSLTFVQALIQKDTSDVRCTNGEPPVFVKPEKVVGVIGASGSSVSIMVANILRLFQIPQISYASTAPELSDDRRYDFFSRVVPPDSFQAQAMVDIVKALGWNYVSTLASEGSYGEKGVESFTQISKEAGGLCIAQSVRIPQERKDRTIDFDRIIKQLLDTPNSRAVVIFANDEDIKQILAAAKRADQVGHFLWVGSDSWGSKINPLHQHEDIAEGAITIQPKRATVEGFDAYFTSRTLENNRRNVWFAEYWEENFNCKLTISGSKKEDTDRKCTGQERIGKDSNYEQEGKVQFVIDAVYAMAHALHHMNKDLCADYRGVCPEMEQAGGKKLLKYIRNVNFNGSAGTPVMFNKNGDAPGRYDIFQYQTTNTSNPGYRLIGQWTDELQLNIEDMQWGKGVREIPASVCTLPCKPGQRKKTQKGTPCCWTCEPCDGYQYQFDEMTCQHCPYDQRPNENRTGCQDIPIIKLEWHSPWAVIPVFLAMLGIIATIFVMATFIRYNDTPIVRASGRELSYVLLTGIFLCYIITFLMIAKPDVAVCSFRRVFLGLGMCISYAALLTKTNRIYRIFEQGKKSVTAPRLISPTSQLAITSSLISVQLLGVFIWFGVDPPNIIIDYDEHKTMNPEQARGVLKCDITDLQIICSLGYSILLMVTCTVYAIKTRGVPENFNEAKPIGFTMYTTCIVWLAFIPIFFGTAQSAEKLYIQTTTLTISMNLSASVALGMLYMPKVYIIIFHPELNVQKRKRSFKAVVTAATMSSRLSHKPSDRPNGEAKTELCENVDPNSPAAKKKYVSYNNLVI
mGlu4, sequence (Q14833 33-912): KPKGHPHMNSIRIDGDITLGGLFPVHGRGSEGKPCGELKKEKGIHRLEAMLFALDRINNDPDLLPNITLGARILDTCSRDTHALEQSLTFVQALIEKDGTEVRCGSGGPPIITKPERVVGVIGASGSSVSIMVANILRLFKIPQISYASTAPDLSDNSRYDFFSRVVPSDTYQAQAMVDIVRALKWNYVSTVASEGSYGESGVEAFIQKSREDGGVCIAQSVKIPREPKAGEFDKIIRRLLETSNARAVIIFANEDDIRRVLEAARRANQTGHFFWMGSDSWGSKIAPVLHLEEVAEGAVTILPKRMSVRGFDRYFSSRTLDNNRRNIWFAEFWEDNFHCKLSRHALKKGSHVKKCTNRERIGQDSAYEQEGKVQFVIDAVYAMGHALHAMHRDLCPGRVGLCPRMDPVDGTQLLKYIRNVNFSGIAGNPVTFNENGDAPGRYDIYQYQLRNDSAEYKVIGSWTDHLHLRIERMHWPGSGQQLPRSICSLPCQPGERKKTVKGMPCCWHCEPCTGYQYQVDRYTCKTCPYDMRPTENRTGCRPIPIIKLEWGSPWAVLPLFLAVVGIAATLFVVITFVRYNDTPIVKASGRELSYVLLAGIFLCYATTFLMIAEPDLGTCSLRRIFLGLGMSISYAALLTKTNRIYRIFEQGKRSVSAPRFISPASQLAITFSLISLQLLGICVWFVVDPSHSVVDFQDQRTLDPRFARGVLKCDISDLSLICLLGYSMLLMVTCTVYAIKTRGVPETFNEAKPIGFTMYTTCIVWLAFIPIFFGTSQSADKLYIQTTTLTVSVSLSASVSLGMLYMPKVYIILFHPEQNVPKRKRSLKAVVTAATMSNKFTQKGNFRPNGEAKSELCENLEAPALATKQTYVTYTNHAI

Compound: N[C@@H](CCP(=O)(O)C(O)c1ccc(OCC(=O)O)cc1)C(=O)O (stereo partly drawn) [Derivative 2, [((3S)-3-Amino-3-carboxy)propyl][(4-(carboxymethoxy)phenyl)hydroxymethyl]phosphinic Acid]
- EC50 (mGlu6): 4.2 ± 0.6 µM
- EC50 (mGlu4): 0.11 ± 0.02 µM
- EC50 (mGlu7 [1]): 11.6 ± 1.9 µM
- mGlu7/4 EC50 ratio (mGlu7 [2]): 100
